From patent publication US20130309379A1, “Anti-Fungal Composition” (DSM IP ASSETS B.V., priority 2005, published 2013)
Blank lines part the entries; values can stand above or below the compound they belong to.

Columns and labels:
[1] = system: Saccharomyces cerevisiae ATCC 9763; test: Microbiological method for determining natamycin release rate from a loaded filter paper disc into seeded agar (inhibition zone); type: physicochemical
From the text: The test used to measure the natamycin release rate has been described in example 1 of this application. Briefly, the sample comprising natamycin is applied to a carrier. The carrier can be any material that provides unlimited water transport. Preferably, the carrier is a filter paper disc, more preferably the filter paper disc used in example 1. Subsequently, the carrier loaded with the natamycin composition is applied to the surface of an agar plate seeded with yeast or fungal cells (in example 1 Saccharomyces cerevisiae cells were used). The agar plate and the carrier are subsequently incubated at a temperature such that the natamycin is released into the agar. (in example 1, the temperature chosen is 6° C.) during 24 hours. After having removed the carrier from the agar plate, the agar plate is incubated under growth permitting conditions for said cells (in example 1, the temperature is 30° C.) during a chosen period. In this case, the period is 24 hours or 48 hours depending on the type of release rate desired to be determined. Finally, inhibition of cell growth in the agar due to the presence of the natamycin, which has been released from the carrier into the agar, is determined. The size of the inhibition zone is a measure of the natamycin released from the sample. […] The discs were then put on agar, which was seeded with the Saccharomyces cerevisiae ATCC 9763. The petri dishes containing the agar were then stored for 24 hours at 6° C. to permit the natamycin to release into the agar. […] As a reference, discs were freshly loaded with a range of known amounts of natamycin dissolved in aqueous methanol. The next day, the sample discs were transferred to new petri dishes containing agar seeded with Saccharomyces cerevisiae. New discs freshly loaded with a range of known quantities of dissolved natamycin were prepared for use as a reference. The new dishes with the sample discs and the new reference were stored at 6° C. for 24 hours and the old dishes containing the released natamycin incubated at 30° C. for 24 hours. The size of the inhibition zone is a measure of the natamycin released from the sample disc. The amount of released natamycin can be calculated by methods know per se. By repeating the procedure, the released natamycin can be measured on a daily basis. Other release time periods may alternatively be chosen. Using the method described in example 1, the release rate profile of the new slow release natamycin was compared to the release rate profile of known commercial natamycin DELVOCID® (DSM, The Netherlands). Suspensions of the natamycin preparations were prepared in such a manner that each suspension contained 800 ppm natamycin as such. 50 μl of each of the respective mixtures was applied on a paper filter disc and the release rate was analysed using the method of example 1.

[2] = Chemical stability (natamycin degradation) in beverages stored at 4° C.; type: physicochemical; conditions: for Total degradation: 4° C., 150 to 170 ppm natamycin
Experimental: The release rate of the new slow release natamycin was compared with that of known commercial natamycin DELVOCID® Instant (DSM, The Netherlands) by measuring their chemical stability in various beverages. The natamycin preparations were suspended in beverages to a final concentration of 150 to 170 ppm natamycin. The natamycin containing beverages were stored at 4° C. and the natamycin concentration in the beverage was measured in time.

[3] = system: Saccharomyces cerevisiae ATCC 9763; conditions: carrier on agar surface of 0.6 cm diameter, carrier loading 40 μg; disclosed in U.S. Pat. No. 5,821,233; cited from earlier work
[4] = Initial release rate, 40 μg carrier loading, 0.6 cm disc, 6° C.

Release rate after 11 days ([1]; 5 μg carrier loading): 0.35 μg/24 hours
% decrease in release rate after 9 days ([1]; 10 μg carrier loading): 35%
Release rate after 11 days ([1]; 10 μg carrier loading): 0.6 μg/24 hours
% decrease in release rate after 9 days ([1]; 40 μg carrier loading): 45%
Release rate after 11 days ([1]; 40 μg carrier loading): 1.2 μg/24 hours
Release rate after 24 hours [1, 4]: <2 μg/24 hours
Release rate after 48 hours [1, 4]: <1.8 μg/24 hours
Release rate compared with DELVOCID ([1]; comparison in words): lower release rate
Total degradation ([2]; Ice tea pH 3.2, 1 week): 3.4 ppm
Total degradation ([2]; Ice tea pH 3.2, 2 weeks): 5.4 ppm
Total degradation ([2]; Ice tea pH 3.2, 3 weeks): 3.2 ppm
Total degradation ([2]; Ice tea pH 3.2, 4 weeks): 15.0 ppm
Total degradation ([2]; Ice tea pH 3.2, 5 weeks): 17.4 ppm
Difference in total degradation (DELVOCID Instant minus slow release natamycin) ([2]; Ice tea, 1 week): 11.5 ppm
Difference in total degradation (DELVOCID Instant minus slow release natamycin) ([2]; Ice tea, 2 weeks): 11.1 ppm
Difference in total degradation (DELVOCID Instant minus slow release natamycin) ([2]; Ice tea, 3 weeks): 12.1 ppm
Difference in total degradation (DELVOCID Instant minus slow release natamycin) ([2]; Ice tea, 4 weeks): 13.2 ppm
Difference in total degradation (DELVOCID Instant minus slow release natamycin) ([2]; Ice tea, 5 weeks): 14.3 ppm
Total degradation ([2]; Tomato juice pH 4.2, 1 week): 5.1 ppm
Total degradation ([2]; Tomato juice pH 4.2, 2 weeks): 13.1 ppm
Total degradation ([2]; Tomato juice pH 4.2, 3 weeks): 20.1 ppm
Total degradation ([2]; Tomato juice pH 4.2, 4 weeks): 23.2 ppm
Total degradation ([2]; Tomato juice pH 4.2, 5 weeks): 28.9 ppm
Difference in total degradation (DELVOCID Instant minus slow release natamycin) ([2]; Tomato juice, 1 week): 3.5 ppm
Difference in total degradation (DELVOCID Instant minus slow release natamycin) ([2]; Tomato juice, 2 weeks): 0.6 ppm
Difference in total degradation (DELVOCID Instant minus slow release natamycin) ([2]; Tomato juice, 3 weeks): 6.4 ppm
Difference in total degradation (DELVOCID Instant minus slow release natamycin) ([2]; Tomato juice, 4 weeks): 4.7 ppm
Difference in total degradation (DELVOCID Instant minus slow release natamycin) ([2]; Tomato juice, 5 weeks): 3.7 ppm
Release rate compared with DELVOCID Instant in beverages ([2]; tomato juice and ice tea, inferred from degradation, in words): lower
SMILES: C[C@@H]1C/C=C/C=C/C=C/C=C/[C@H](O[C@@H]2O[C@H](C)[C@@H](O)[C@H](N)[C@@H]2O)C[C@@H]2O[C@](O)(C[C@@H](O)C[C@H]3O[C@@H]3/C=C/C(=O)O1)C[C@H](O)[C@H]2C(=O)O [Low release natamycin, natamycin]

SMILES: C[C@@H]1C/C=C/C=C/C=C/C=C/[C@H](O[C@@H]2O[C@H](C)[C@@H](O)[C@H](N)[C@@H]2O)C[C@@H]2O[C@](O)(C[C@@H](O)C[C@H]3O[C@@H]3/C=C/C(=O)O1)C[C@H](O)[C@H]2C(=O)O [natamycin]
Release rate over the first 24 hours [3]: at least 3 μg/24 hours
